“Also recorded” adds a separate entry of the source. Where two headings read alike, the source gives them in different places.
What was measured:
[1] = Safety and tolerability in healthy subjects; type: in vivo, human
[2] = In vitro potency, human vs rat
[3] = Human efficacy dose calculation from rat efficacious exposure
Protocol: The human efficacy dose was calculated based on the efficacious exposure in the rat ANIT-induced disease model. Since the in vitro potency and protein binding between human and rat were similar, the EC80 exposure in human was assumed to be the same as that in rat (3.05 ng*h/mL).

[4] = Single oral dose plasma pharmacokinetics in healthy subjects; type: in vivo, human; settings: for CL/F / AUC(0-inf) / AUC(0-t) / Cmax / half-life / Tmax: healthy subjects, plasma; for AUC(0-inf) / AUC(0-t) / Cmax / half-life / Tmax: human
[5] = Protein binding, human vs rat; type: in vitro ADME
[6] = tested on: FXR target genes
[7] = tested on: FGF15; test: Serum FGF15 (MSD assay) in chronic rat ANIT-induced cholestasis model; type: in vivo; settings: chronic treatment rat ANIT model
Protocol: Serum FGF15 levels were quantified using an FGF15 Meso Scale Discovery (MSD) assay. Mouse FGF15 antibody from R&D Systems (AF6755) was used both as capture and detection antibody in the assay. MSD SULFO-TAG NHS-Ester was used to label the FGF15 antibody. MSD standard 96-well plates were coated with the FGF15 capture antibody and the plates were blocked with MSD Blocker A (R93AA-2). After washing the plate with PBS+0.05% Tween 20, MSD diluent 4 was dispensed into each well and incubated for 30 min. 25 μl of calibrator dilutions or samples (serum or EDTA plasma) were dispensed into each well and incubated with shaking at RT. After washing, detection antibody was added and incubated with shaking for 1 h at RT. After washing and the addition of MSD Read buffer (R92TC-2), the plate was read on an MSD SECTOR Imager 6000. Plots of the standard curve and unknown samples were calculated using MSD data analysis software.
Activation of FXR in the ileum induces the expression of fibroblast growth factor 15 (FGF15 in rodent; FGF19 in human), a hormone that is secreted in the portal blood and signals to the liver to repress Cyp7a1 expression synergistically with SHP. The direct FXR-dependent induction of FGF15/19 along with FGF15/19's anti-cholestatic properties makes it a convenient serum biomarker for detecting target engagement of FXR agonists.

[8] = Pharmacokinetics in the chronic 2 week rat ANIT-induced cholestasis model; type: in vivo; settings: male, Wistar, po, day 13, serum; for AUC(0-t): read-out: AUC 0-24 hr
Protocol: Male Wistar rats were treated with ANIT (0.1% ANIT in chow diet) for 2 weeks. […] The serum samples were collected on day 14 for analysis of biomarkers of hepatobiliary injury (including ALT, AST, bilirubin and bile acids). […] The mean biomarker data were compared to the PK data (average concentration at each dose) for the modeling. The IC80 was determined using the Inhibitory effect Imax model (effect C=0 at Imax, C=infinity at E0) built in Phoenix WinNonlin 6.3 software. […] Therefore, we chose to use a mean of the IC80 for the four biomarkers (total bilirubin, total bile acids, ALT and AST) as the IC80 for efficacy in this model.
ND=not determined. Data are presented as mean (n=3/group).

[9] = tested on: FGF19; settings: healthy subjects, single and repeated dosing
[10] = tested on: rat alpha-naphthyl-isothiocyanate (ANIT) model; test: Chronic treatment rat ANIT model, serum markers of cholestasis and liver damage; type: in vivo; settings: 14 days oral dosing
Protocol: This model was utilized because it recapitulates many features of cholestasis observed in human PBC. In rats, ANIT-treatment leads to hepatic inflammatory cell infiltrate, bile duct hyperplasia, necrosis of bile duct epithelium, expansion of the hepatic portal region, hepatic fibrosis, hepatocellular necrosis and elevated levels of circulating bile acids, bilirubin, ALT, AST and GGT. These features are similar to subjects with advanced PBC.
Rats were treated with alpha-naphthyl-isothiocyanate (ANIT) (0.1% w/w) in food for 3 days prior to treatment with the compound at the indicated doses or with vehicle control (“Veh”). A non-cholestatic control group was fed standard chow diet without ANIT, and serve as the non-cholestatic control animals (“Control”). After 14 days of oral dosing, the indicated analyte was measured in serum. LLQ, lower limit of quantitation. Mean±SEM; n=5.

[11] = Food effect (high-fat meal vs fasted) on pharmacokinetics; type: in vivo, human; settings: taken with a high-fat meal
Protocol: To avoid variability in drug exposure, it is recommended that throughout the treatment period, patients will be directed to take study drug at home with ˜240 mL (8 ounces) of water in the morning in a fasting state, at least 30 min prior to the first beverage apart from water and 60 min prior to first meal of the day, preferably at the same time of the day.

[12] = clinical study in healthy subjects
[13] = 10 ug, single oral dose 10 μg, fasted, mean
[14] = 30 ug, single oral dose 30 μg, fasted, mean
[15] = 100 ug, single oral dose 100 μg, fasted, mean
[16] = 300 ug, single oral dose 300 μg, fasted, mean
[17] = 1000 ug, single oral dose 1000 μg, fasted, mean
[18] = 3000 ug, single oral dose 3000 μg, fasted, mean

Question: Which results are given for `O=C(O)c1cc(F)c2nc(N3C4CC[C@H]3CC(OCc3c(-c5ccccc5OC(F)(F)F)noc3C3CC3)C4)sc2c1` (stereo partly shown) [Compound A]?
Answer: elevation of transaminases (ALT and AST), number of subjects ([1]; 100 μg repeated daily): 3 subjects; ALP or bilirubin ([1]; 100 μg repeated daily, any subject): no elevation; time for elevated ALT to resolve to within normal levels ([1]; 100 μg, without intervention): ≤ 14 days; adverse events related to itch [1, 12]: no adverse events related to itch; physical exam, vital signs or ECGs [1, 12]: No significant findings; tolerability ([1]; repeated daily administration, doses up to and including 60 μg): well tolerated; in vitro potency between human and rat [2]: similar; Cmax at estimated human efficacious dose ([3]; at dose of ~6 μg): ~0.2 ng/mL; EC80 exposure ([3]; rat value, human assumed to be the same): 3.05 ng·h/mL; CL/F ([4]; single oral dose 10 μg, fasted, mean): 2.98 L/h; CL/F ([4]; single oral dose 30 μg, fasted, mean): 2.26 L/h; CL/F ([4]; single oral dose 100 μg, fasted, mean): 3.08 L/h; CL/F ([4]; single oral dose 300 μg, fasted, mean): 3.21 L/h; CL/F ([4]; single oral dose 1000 μg, fasted, mean): 2.43 L/h; CL/F ([4]; single oral dose 3000 μg, fasted, mean): 3.63 L/h; AUC(0-inf) [4, 13]: 3.39 ng·h/mL; AUC(0-t) [4, 13]: 2.79 ng·h/mL; Cmax [4, 13]: 0.186 ng/mL; half-life ([4]; 10 ug, single oral dose 10 μg, fasted, mean, read-out: T1/2 (converted)): 14.9 h; Tmax ([4]; 10 ug, single oral dose 10 μg, fasted, median, read-out: Tmax): 4 h; AUC(0-inf) [4, 14]: 13.4 ng·h/mL; AUC(0-t) [4, 14]: 12.7 ng·h/mL; Cmax [4, 14]: 0.627 ng/mL; half-life ([4]; 30 ug, single oral dose 30 μg, fasted, mean, read-out: T1/2 (converted)): 13.7 h; Tmax ([4]; 30 ug, single oral dose 30 μg, fasted, median, read-out: Tmax): 4 h; AUC(0-inf) [4, 15]: 37.9 ng·h/mL; AUC(0-t) [4, 15]: 34.8 ng·h/mL; Cmax [4, 15]: 1.73 ng/mL; half-life ([4]; 100 ug, single oral dose 100 μg, fasted, mean, read-out: T1/2 (converted)): 13.5 h; Tmax ([4]; 100 ug, single oral dose 100 μg, fasted, median, read-out: Tmax): 4 h; AUC(0-inf) [4, 16]: 123 ng·h/mL; AUC(0-t) [4, 16]: 119 ng·h/mL; Cmax [4, 16]: 6.41 ng/mL; half-life ([4]; 300 ug, single oral dose 300 μg, fasted, mean, read-out: T1/2 (converted)): 15.3 h; Tmax ([4]; 300 ug, single oral dose 300 μg, fasted, median, read-out: Tmax): 4 h; AUC(0-inf) [4, 17]: 482 ng·h/mL; AUC(0-t) [4, 17]: 416 ng·h/mL; Cmax [4, 17]: 22.1 ng/mL; half-life ([4]; 1000 ug, single oral dose 1000 μg, fasted, mean, read-out: T1/2 (converted)): 21.9 h; Tmax ([4]; 1000 ug, single oral dose 1000 μg, fasted, median, read-out: Tmax): 4 h; AUC(0-inf) [4, 18]: 933 ng·h/mL; AUC(0-t) [4, 18]: 888 ng·h/mL; Cmax [4, 18]: 54.2 ng/mL; half-life ([4]; 3000 ug, single oral dose 3000 μg, fasted, mean, read-out: T1/2 (converted)): 16.5 h; Tmax ([4]; 3000 ug, single oral dose 3000 μg, fasted, median, read-out: Tmax): 4 h; Tmax ([4]; single oral dose, fasted, read-out: median Tmax): 4 h; half-life ([4]; single oral dose, range across doses, read-out: mean apparent terminal elimination half-life): 13 to 22 h; dose proportionality of mean Cmax and AUCinf ([4]; single dose, dose range 10 μg to 3000 μg): approximately dose proportional increase; protein binding between human and rat [5]: similar; BSEP gene expression levels ([6]; rat liver): significant, dose-dependent increases; SHP gene expression levels ([6]; rat liver): significant, dose-dependent increases; estimated effective dose (mean ED and median ED) ([6]; rats treated two weeks, FXR target gene induction/repression in liver and ileum, day 14): approximately 0.01 mg/kg; serum FGF15 levels [7]: stimulated serum FGF15 expression; also recorded: Significant dose-dependent induction; Cmax ([8]; 0.01 mg/kg): 0.39 ng/mL; AUC(0-t) ([8]; 0.01 mg/kg): 3.49 ng·h/mL; Cmax ([8]; 0.05 mg/kg): 2.28 ng/mL; Cmax ([8]; 0.25 mg/kg): 15.6 ng/mL; AUC(0-t) ([8]; 0.25 mg/kg): 158 ng·h/mL; Cmax ([8]; 1.0 mg/kg): 52 ng/mL; AUC(0-t) ([8]; 1.0 mg/kg): 582 ng·h/mL; FGF19 response to dose [9]: Dose-dependent increases; also recorded: continues to rise with increasing Compound A doses beyond 100 μg; serum bile acid concentrations [10]: Marked reductions; serum bilirubin concentrations [10]: Marked reductions; hepatobiliary injury indicators (AST, ALT, bilirubin, bile acids) in serum ([10]; 0.01 to 3 mg/kg): improved many of these indicators starting at doses as low as 0.01 mg/kg; Tmax ([11]; human, plasma, oral, read-out: median Tmax): 9 h; increase of mean AUCinf compared to the fasted state [11]: approximately 60%; increase of mean Cmax compared to the fasted state [11]: approximately 60%

— patent US20210386729A1, “METHODS FOR TREATING LIVER DISORDERS USING FXR AGONISTS” (NOVARTIS AG, priority 2016, published 2021)
